Measurements published in patent publication US20220106282A1, “TREATMENT FOR BREAST CANCER, INCLUDING TRIPLE-NEGATIVE BREAST CANCER” (priority 2018, published 2022).
Values joined by “and” are separate entries in the source; they are usually repeats but may differ in a detail not shown here. Equal values may be shown once. Marks after values point to notes of the source that are not given here. Each block holds one molecule with its values, some of them ahead of it.

Assays:
[1] = tested on: MCF-7 breast cancer cells; details: RU 2619457; cited from earlier work
[2] = tested on: ovariectomized rats; experiment: Biochemical parameters of ovariectomized rats; type: in vivo, rat; details: ovariectomised rats, EE 0.1 mg/kg bw
[3] = tested on: uterine body; experiment: Hormonal effect: uterine body weight in tumor-bearing mice; type: in vivo, mouse; details: Tamoxifen-1 group, 4 mg/kg
Experimental: To estimate the hormonal effect of the medicament, the weight of the uterine body without uterine horns was measured (Table 9).

[4] = tested on: breast tumors in female FVB mice transgenic for HER-2/neu; experiment: Antitumor activity on model of multiple breast tumors in HER-2/neu transgenic mice; details: for Average total volume of tumors in mice (M) / Average volume of tumors present at the beginning of the experiment (M): i.g. daily
Experimental: Two adenocarcinoma subtypes can be differentiated, in particular ER+, PR−, and ER−, PR− [2].
The study was carried out in female FVB mice transgenic for HER-2/neu by conventional category; the strain was obtained from the mouse bank Charles River Laboratories (Italy). At the beginning of the study the animals were 21-41 weeks old having weight of 25 to 30 g.
The study medicament was administered i.g. using a metal atraumatic gavage (with the procedure corresponds to the oral route of administration in clinical settings). The medicament was administered in a single daily dose (20 mg/kg of body weight) and 5-fold daily dose of 100 mg/kg of body weight. Ex tempore solutions of the medicament for administration were prepared in olive oil (refined olive oil supplemented with unrefined extra virgin olive oil available under Global Village “Clasico” trademark, lot L:183351116, expiry date 26 Apr. 2020, BAIEO, Spain). The administered volume was 0.1 ml per 10 g of a mouse body weight (0.2 ml of a ready-to-use formulation for a mouse of 20 g). The medicament administration was started 24 hours after the randomization. The duration of the administration course was 27-28 days.
This dose corresponds to a human daily dose of 20 mg/kg.
The control groups were given the olive oil (placebo).
The evaluation criteria included the clinical observation data, animals body weights, time of death (if applicable), tumor growth over time, pathomorphological examination data (verification of a neoplasm during autopsy, assessment of toxic effects by macroscopic presentation of changes in the internal organs).
The animals body weights were recorded before the first administration of the medicaments and then twice per week using a verified high-speed electronic laboratory balance Ohaus Scout Pro (USA) with a maximum load of 2000 g and a measurement step of 0.1 g.
Macroscopically detectable tumor nodes were measured in animals once per week during weighing process. Two linear dimensions including the largest one and the largest rectangular to the former were recorded for each of the nodes. The largest dimension was taken as a length (a) and the second dimension as a width (b) of the tumor nodes. A tumor volume was calculated by the expression as follows: […]
The efficacy of the therapy was assessed by recording a change in the average tumor volume, tumor growth inhibition (TGI), and the average total tumor volumes and its change over time in each of the mice.
The percent of tumor growth inhibition was calculated by the expression as follows:
TGI=(Vctrl−Vexp)/Vctrl×100(%),
where Vctrl is an average tumor volume in a control group, and Vexp is an average tumor volume in an experimental group.
The primary data from individual forms were transferred to Microsoft Excel 2007 books. The group arithmetic average (M) and standard deviation (m) were calculated for all quantitative data. The statistical analysis was performed using the statistical software GraphPad Prism 6.0. The differences between the groups were assessed using ANOVA regression analysis and the Fisher's exact test.

[5] = Hormonal effect: uterine body weight in tumor-bearing mice; type: in vivo, mouse; details: Tamoxifen-1 group, 4 mg/kg
[6] = tested on: uterine body; experiment: as above; type: in vivo, mouse; details: Tamoxifen-1 group, 4 mg/kg; estrous phase E
[7] = first class: high solubility, high permeability, second class: low solubility; cited from earlier work
[8] = tested on: uterus; details: literature / prior art; cited from earlier work
[9] = Tamoxifen group, dose 1.4 mg/kg, Day 6
[10] = Tamoxifen group, dose 1.4 mg/kg, Day 13
[11] = Tamoxifen group, dose 1.4 mg/kg, Day 20
[12] = Tamoxifen group, dose 1.4 mg/kg, Day 27
[13] = Tamoxifen group, dose 1.4 mg/kg, Day −1
[14] = Tamoxifen group, dose 1.4 mg/kg, Day 27 vs Day −1
[15] = Tamoxifen-1 group, 4 mg/kg i.g. daily, end of study

Compound: C[C@H]1Oc2cc(OS(N)(=O)=O)ccc2C2=C1C1=CCC[C@H](OS(N)(=O)=O)[C@@]1(C)CC2 [3,17αβ-disulfamoyloxy-7β-methyl-D-homo-6-oxa-estra-1,3,5(10), 8,14-pentaen]
Growth of MCF-7 breast cancer cells [1]: inhibitor of the growth

Uterus weight [2]: 164 ± 11 mg/100 g bw
Compound: C#C[C@]1(O)CC[C@H]2[C@@H]3CCc4cc(O)ccc4[C@H]3CC[C@@]21C [EE, 17α-ethinyl estradiol, reference compound]

Compound: CC/C(=C(\c1ccccc1)c1ccc(OCCN(C)C)cc1)c1ccccc1 [Tamoxifen, reference compound]
Uterine body weight ([3]; all mice): 32 ± 2 mg
Uterine body weight ([3]; estrous phase D): 34 mg
Average total volume of tumors in mice (M) [4, 9]: 0.76 cm^3
Average volume of tumors present at the beginning of the experiment (M) [4, 9]: 0.26 cm^3
Average total volume of tumors in mice (M) [4, 10]: 0.88 cm^3
Average volume of tumors present at the beginning of the experiment (M) [4, 10]: 0.3 cm^3
Average total volume of tumors in mice (M) [4, 11]: 1.38 cm^3
Average volume of tumors present at the beginning of the experiment (M) [4, 11]: 0.47 cm^3
Average total volume of tumors in mice (M) [4, 12]: 1.68 cm^3
Average volume of tumors present at the beginning of the experiment (M) [4, 12]: 0.58* cm^3
Average total volume of tumors in mice (M) [4, 13]: 0.66 cm^3
Average volume of tumors present at the beginning of the experiment (M) [4, 13]: 0.23 cm^3
TGI (average total tumor volume) [4, 9]: −12%
TGI (average tumor volume) [4, 9]: 13%
TGI (average total tumor volume) [4, 10]: −32%
TGI (average tumor volume) [4, 10]: 46%
TGI (average total tumor volume) [4, 11]: 9%
TGI (average tumor volume) [4, 11]: 29%
TGI (average total tumor volume) [4, 12]: 18%
% of change from baseline (average total tumor volume) [4, 14]: 155%
% of change to the initial value (average tumor volume) [4, 14]: 152%
TGI (average total tumor volume) [4, 13]: −57%
TGI (average tumor volume) [4, 13]: −28%
Average volume of new tumors at the end of the observation period (M) ([4]; Tamoxifen-1 group, 4 mg/kg i.g. daily, 4 mg/kg): 0.16±0.05 cm^3 and 0.16 cm^3
Absolute number of new tumors [4, 15]: 21
Frequency of tumor stabilizations [4, 15]: 10%
Average volume of new tumors, % less than that of the control group ([4]; Tamoxifen-1 group, end of observation): 52%
Body weight ([5]; all mice): 28.2 ± 1.0 g
Body weight ([5]; estrous phase D): 30.5 g
Body weight ([5]; estrous phase E): 28.0 ± 1.0 g
Uterine body weight [6]: 31 ± 2 mg

Compound: CC(C)(C#N)c1cc(Cn2cncn2)cc(C(C)(C)C#N)c1 [anastrazole]
BCS class [7]: first class

Compound: C[C@]12CC[C@@H]3c4ccc(OS(N)(=O)=O)cc4CC[C@H]3[C@@H]1CCC2=O [estrone sulfamate]
Uterotropic activity [8]: strong uterotropic activity

Compound: N#Cc1ccc(C(c2ccc(C#N)cc2)n2cncn2)cc1 [letrozole]
BCS class [7]: first class
